In patent US6518424B1, “Substituted pyrimidine compositions and methods of use” (Elan Pharmaceuticals, Inc., priority 1998, dated 2003):

Legend:
cPLA2 = biological target: T1, cPLA2 (Homo sapiens, UniProt P47712); test: cPLA2 enzyme assay using U937 cytosolic extract as enzyme source (release of [14C]-AA from phosphatidylcholine); assay type: biochemical; details: asterisk on compound number in Table I
T1 construct: using cPLA2 enzyme from the cytosolic extraction of U937 cells; endogenous in cells; host or cells: human U937 cells, cytosolic extract (N2 cavitation, 100,000 g supernatant)
T1 sequence (P47712 1-749): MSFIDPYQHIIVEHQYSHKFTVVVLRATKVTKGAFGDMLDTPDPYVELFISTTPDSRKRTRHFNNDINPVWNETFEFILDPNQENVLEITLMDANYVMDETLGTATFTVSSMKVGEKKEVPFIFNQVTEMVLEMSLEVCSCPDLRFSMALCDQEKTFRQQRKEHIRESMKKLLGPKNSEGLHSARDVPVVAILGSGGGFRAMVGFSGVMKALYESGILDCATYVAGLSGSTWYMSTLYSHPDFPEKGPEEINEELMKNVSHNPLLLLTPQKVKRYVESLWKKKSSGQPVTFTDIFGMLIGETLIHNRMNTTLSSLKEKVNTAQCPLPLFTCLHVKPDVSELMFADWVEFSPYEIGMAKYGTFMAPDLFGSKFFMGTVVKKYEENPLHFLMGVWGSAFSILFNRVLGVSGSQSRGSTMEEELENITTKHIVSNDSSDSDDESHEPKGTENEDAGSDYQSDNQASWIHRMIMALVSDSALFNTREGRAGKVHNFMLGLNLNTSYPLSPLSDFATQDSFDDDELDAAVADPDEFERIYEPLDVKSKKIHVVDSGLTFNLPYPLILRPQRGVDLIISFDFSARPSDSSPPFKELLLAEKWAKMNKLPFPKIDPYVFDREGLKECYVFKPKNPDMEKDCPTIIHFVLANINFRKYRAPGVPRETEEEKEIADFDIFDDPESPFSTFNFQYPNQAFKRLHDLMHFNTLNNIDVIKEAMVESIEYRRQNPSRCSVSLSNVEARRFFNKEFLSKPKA
Experimental: The PLA2 inhibitory properties of the compounds of the present invention were evaluated using the following assays. Inhibition of release of [^14C]-AA from phosphatidylcholine was measured according to standard methods. Human U937 cells were cultured in RPMI 1640 medium supplemented with 10% fetal bovine serum, penicillin, L-glutamine, and HEPES buffer. Cells were harvested and washed 3 times with extraction buffer (140 mM NaCl—5 mM KCl—2 mM EDTA—25 mM Tris pH 7.4) and resuspended at 1×10^8 cells/mL containing 100 μM leupeptin—50 μM pepstatin—1 mM PMSF. Cells were placed in a N2 cavitation bomb and put under pressure at 600 psi or maximum pressure for 20 minutes at 4° C. Cells were then released. The suspension was collected and centrifuged at 100,000 g for 60 minutes at 4° C. The resulting supernatant was collected and filtered through a 0.22 μm filter. Extract was then diluted to 50% glycerol and stored at −20° C.
For the preparation of substrate, 20 nmol of phosphatidylcholine-α-1-palmitoyl-2-arachidonyl-1-[^14C] and 10 nmol 1,2-dioleyl-glycerol were mixed together and dried under a N2 stream. A solution of 1 mL of 150 mM NaCl—50 mM HEPES pH 7.5 was added to the mixture. To reconstitute liposomes, the mixture was sonicated using a Branson 450 sonifier for 2 minutes at 50% duty cycle output level 3 on ice. After sonification, 40 μL of a 100 mg/mL BSA solution was added per mL.
The compounds were first dissolved in DMSO at 2 mM and serially diluted in DMSO by a factor of five for a total of 5 concentrations. These dilutions were further dissolved 60 fold in reaction buffer (150 mM NaCl—50 mM HEPES pH 7.5—1 mM CaCl2—1 mM 2-ME) containing approximately 5% of the U937 cytosolic extract to make up the preincubation mixture which was then incubated for 20 minutes at 37° C. Vehicle control using only DMSO with no compound was also made. To 30 μL of this Extract/compound mixture was added 10 μL of substrate. The 40 μL reaction mixture was incubated for 15 minutes at 37° C., and the reaction was stopped by adding 400 μL Dole's reagent [2-propanol/heptane/0.5 M H2SO4 (40:10:1) 10 μg/mL stearic acid]. This was followed by the addition of 240 μL heptane and 200 μL water. 280 μL of the top heptane layer was transferred to a tube containing […] silica gel with 200 μL heptane and mixed vigorously. Silica gel was then centrifuged at 1000 g for 1 minute. 400 μL of liquid was transferred to scintillation vial along with 4 mL of Beckman Ready Safe scintillation cocktail and mixed. Radioactivity was determined in a Beckman scintillation counter.
The compounds of the present invention were assayed for cPLA2 activity using cPLA2 enzyme from the cytosolic extraction of U937 cells (all procedures carried out on ice). […]

Row | melting point [°C] | IC50 (cPLA2) [nM] | SMILES
1 | 149 to 154 | < 100 | CCCc1ccc(C(c2ccccc2)c2cc(O)nc(-c3ccccc3)n2)cc1 (centres unmarked) [Compound 18, 6-((4-n-Propyl)phenyl,phenyl)methyl-2-phenyl-pyrimidine-4-ol]
2 | – | < 100 | CCCc1ccc(C(c2ccccc2)c2cc(O)nc(-c3ccccc3)n2)cc1 (centres unmarked) [Compound 19, 6-((4-Propyl)phenyl,phenyl)methyl-2-phenyl-pyrimidine-4-ol]
3 | – | < 100 | CC(C)Oc1ccc(C(c2ccccc2)c2cc(O)nc(-c3ccccc3)n2)cc1 (centres unmarked) [Compound 21, 6-((4-Isopropoxy)phenyl,phenyl)methyl-2-phenyl-pyrimidine-4-ol]
4 | – | < 100 | CC(C)Oc1ccc(C(c2ccccc2)c2cc(O)nc(-c3ccccc3)n2)cc1 (centres unmarked) [Compound 22, 6-((4-Isopropoxy)phenyl,phenyl)methyl-2-phenyl-pyrimidine-4-ol]
